Measured values from US20230346827A1 (priority 2020, published 2023).

Tests used:
[1] = system: Human trabecular meshwork cells; assay: Fibronectin immunofluorescence in TGFβ2-stimulated trabecular meshwork cells; format: cell-based; conditions: TGFβ2 1.0 ng/ml + LMW-DS 4.0 µM, 72 hours
Experimental: Human trabecular meshwork cells (TMC-6590; ScienCell Research Laboratories, Carlsbad, CA) were cultured in TMC (6591; ScienCell Research Laboratories) complete medium and maintained at 37° C. in 5% CO2 until reaching 80-90% confluency. Cells were plated at densities of 5000-10000 cells per well in Greiner-Bio Cell 96 Well black Cell Culture Microplates (655090, Sigma) and left to adhere overnight. The following day cells were treated with TGFβ2 (1.0 ng/ml; Preprotech) and/or LMW-DS (4.0 µM; Tikomed AB) under serum free conditions for 72 hrs.
After 72 hrs treatments, cells were fixed using 4% PFA in PBS (28908, Thermo Fisher Scientific) for 10 minutes, washed with PBS and then washed with PBS containing saponin-based permeabilization buffer (00-8333-56, Thermo Fisher Scientific). Cells were then immunostained with anti-human Fibronectin Alexa Fluor® 488 (53-9869-82, Thermo Fisher Scientific) and nuclear stain Hoeschst 33342 (H21492, Thermo Fisher Scientific) in permeabilizing buffer in the dark for 1 hr at room temperature. […] Images were analyzed using the Yokogawa image analysis software.

ALS patients = assay: Blood myoglobin, creatine kinase and HGF in ALS patients, dextran sulfate 1 mg/kg s.c. weekly for five weeks (Example 15); format: in vivo, human; set-up: circulating HGF, peak: unit not given here
Experimental: A clinical trial in the form of a Phase IIa, single-center, open label, single-arm study where the safety, tolerability and possible efficacy of subcutaneously administered dextran sulfate was evaluated in patients with ALS of intermediate progression rate. The clinical trial was conducted at the Sahlgrenska University Hospital, Gothenburg, Sweden and was overseen and approved by the Ethics Committee of the University of Gothenburg and by the Swedish Medical Products Agency.
Dextran sulfate (Tikomed AB, Viken, Sweden, WO 2016/076780) was administered at 1 mg/kg by […] subcutaneous injection once a week for five weeks to 13 human patients suffering from ALS.
Blood samples were drawn at defined study intervals by a venous catheter into vacutainer tubes. Laboratory analyses of blood plasma were performed immediately after collection by the Clinical Chemistry Laboratory at the Sahlgrenska University Hospital.

sodium salt of dextran sulfate [LMW-DS]
fibronectin levels (quantification of fibronectin staining) [1]: 1136 ± 155 | reduction in creatine kinase levels (ALS patients; after 4 weeks of treatment): 13.3% | serum creatine kinase levels (ALS patients; after 4 weeks of treatment): 6.2 ± 5.08 µkat/L | serum myoglobin levels (ALS patients; after 4 weeks of treatment): 103.69 ± 72.16 µg/L | reduction in myoglobin levels (ALS patients; after 4 weeks of treatment vs Day 1): 30% | circulating HGF, peak (ALS patients; peak at 2.5 hours after injection): 37863 ± 14235
